For 43 compounds, IC50 results are on record in patent US20210139484A1, “DIHYDROISOQUINOLINE-2(1H)-CARBOXAMIDE AND RELATED COMPOUNDS AND THEIR USE IN TREATING MEDICAL CONDITIONS” (GOSSAMER BIO SERVICES, INC., priority 2018, published 2021).

Some results are limits rather than exact numbers.

As usually defined, the IC50 is the concentration at which inhibition is half-maximal.

In one test the target is T1, human HPK1 protein (Homo sapiens, UniProt Q92918).
T1 construct: recombinant human HPK1 protein (a.a. 1-346) was expressed in Sf9 insect cells; GST (N); purchased Signalchem M23-11G; host or cells: Sf9 insect cells (baculovirus)
T1 sequence (Q92918 1-346): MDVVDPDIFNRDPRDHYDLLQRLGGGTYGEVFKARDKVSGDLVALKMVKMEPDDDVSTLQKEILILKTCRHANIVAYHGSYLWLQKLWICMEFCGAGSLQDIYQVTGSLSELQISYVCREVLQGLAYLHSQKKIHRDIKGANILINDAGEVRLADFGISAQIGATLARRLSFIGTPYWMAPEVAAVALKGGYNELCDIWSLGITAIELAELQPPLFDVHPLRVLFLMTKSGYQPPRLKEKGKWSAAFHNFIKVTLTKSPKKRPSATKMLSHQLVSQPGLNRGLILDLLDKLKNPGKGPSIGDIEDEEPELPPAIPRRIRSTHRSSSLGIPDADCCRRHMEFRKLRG
The test is described as follows: Human HPK1 protein TR-FRET assay. The test is classed as biochemical. The conditions noted are these: 1 mM ATP, Table 19. As for the experimental part:
Exemplary compounds from the above Examples were tested for ability to inhibit HPK1 using a human HPK1 protein TR-FRET Assay. Assay procedures and results are described below.
N-terminal GST-tagged recombinant human HPK1 protein (a.a. 1-346) was expressed in Sf9 insect cells using a baculovirus expression system (Signalchem Catalog #M23-11G). The enzyme was diluted in assay buffer (50 mM Tris pH 7.5, 1 mM MgCl2, 0.01% NP-40 and 2 mM DTT) to obtain a 4× working solution at a concentration of 40 nM HPK1 enzyme.
A 5 μM stock of ULight™ CREBtide peptide RRPSYRK (Perkin Elmer Product No. TRF0107-M) derived from human cAMP Response Element Binding (CREB) Protein was prepared in storage buffer containing 50 mM Tris-HCl (pH 7.4), 0.9% NaCl, 0.1% BSA, and 0.05% sodium azide. The CREBtide substrate was diluted in assay buffer (50 mM Tris pH 7.5, 1 mM MgCl2, 0.01% NP-40, 2 mM DTT) with 2 mM ATP to a final concentration of 200 nM CREBtide peptide to obtain a 2× working solution of substrate. HPK1 enzyme and CREBtide substrate solutions were mixed with compounds diluted in DMSO to obtain a final concentration of enzyme, substrate, and ATP of 10 nM, 100 nM, and 1 mM, respectively, in 1% DMSO. The final assay mixture was incubated at room temperature for 60 minutes.
A solution of Europium-labeled anti-phospho-CREB (Ser133) antibody (Perkin Elmer Product No. TRF0200-M), EDTA and LANCE™ Detection Buffer (Perkin Elmer Product No. CR97-100) were added to each well to obtain a final concentration of 2 nM antibody, 10 mM EDTA and 1× LANCE buffer. The resulting mixture was incubated at room temperature for 60 minutes.
The fluorescence resonance energy transfer (FRET) signal was measured on an Envision plate reader: Excitation filter=340 nm, APC emission=665 nm, Europium emission=615 nm, dichroic mirror=D400/D630, delay time=100 μs, and integration time=200 μs. The half maximal inhibitory concentration (IC50) values for compounds were calculated from the quotient of the fluorescence signal at 665 nm divided by the fluorescence signal at 615 nm. The quotient of the fluorescence signals in the presence of DMSO without compound is set as 100 percent enzymatic activity. A 4-parameter logistic model in PRISM (GraphPad) was used to calculate the IC50 for a given compound.
(TR-FRET usually uses a lanthanide donor and a delayed reading to cut background.)
Turning to `CCN1CCN(Cc2ccc(NC(=O)N3CCc4ccc(Oc5ccnc(NC(C)=O)c5)cc4C3)cc2C(F)(F)F)CC1` [II-14], the half-inhibitory concentration (IC50) was less than 500 nM.
Same read-out and setting: under `CCN1CCN(Cc2ccc(NC(=O)N3CCc4ccc(Oc5ccnn6cc(-c7cnn(C)c7)cc56)cc4[C@@H]3C)cc2C(F)(F)F)CC1` [V-7] stands less than 500 nM.
Take `CCN1CCN(Cc2ccc(NC(=O)N3CCc4cc(C)c(Oc5ccnc6[nH]ccc56)cc4C3)cc2C(F)(F)F)CC1` [III-1]: the IC50 is less than 500 nM.
Still for that read-out and setting: under `CCN1CCN(Cc2ccc(NC(=O)N3Cc4cc(Oc5ccnc6[nH]c(C)cc56)cnc4C(C)C3)cc2C(F)(F)F)CC1` (single isomer, unassigned) [VII-5] stands less than 500 nM; under `CCN1CCN(Cc2ccc(NC(=O)N3Cc4cc(Oc5ccnc6[nH]ncc56)cnc4C(C)C3)cc2C(F)(F)F)CC1` (stereo not shown) [VII-16], less than 500 nM; under `CCN1CCN(Cc2ccc(NC(=O)N3CCc4ccc(Oc5ccnn6cc(F)cc56)cc4C3)cc2C(F)(F)F)CC1` [II-22], less than 500 nM.
Still for that read-out and setting: under `CCN1CCN(Cc2ccc(NC(=O)N3CCc4c(C#N)cc(Oc5ccnc6[nH]ccc56)cc4C3C)cc2C(F)(F)F)CC1` (stereo not shown) [IV-11] stands 500 to 5000 nM; under `CCN1CCN(Cc2ccc(NC(=O)N3Cc4cc(Oc5ccnc6[nH]ccc56)ccc4C4(CC4)C3)cc2C(F)(F)F)CC1` [IV-23], less than 500 nM.
As to `C[C@H]1c2cc(Oc3ccnc4[nH]ccc34)ccc2CCN1C(=O)Nc1cc(C(F)(F)F)c(OC2CCN(C)CC2)cn1` [IV-9], the IC50 is less than 500 nM.
In the case of `CCN1CCN(Cc2ccc(NC(=O)N3CCc4ccc(Oc5ncnc6[nH]ncc56)cc4C3)cc2C(F)(F)F)CC1` [II-5], the 50% inhibitory concentration (IC50) is less than 500 nM.
`CCN1CCN(Cc2ccc(NC(=O)N3CCc4ccc(Oc5ccnc6[nH]c(C#N)cc56)cc4[C@@H]3C)cc2C(F)(F)F)CC1` [V-10]: the IC50 is less than 500 nM.
The same measure, in the same setting: the figure for `CCN1CCN(Cc2ccc(NC(=O)N3CCc4ccc(Sc5ncnn6cccc56)cc4C3)cc2C(F)(F)F)CC1` [X-3] is 500 to 5000 nM; for `CCN1CCN(Cc2ccc(NC(=O)N3CCc4c(C)cc(Oc5ccnc6[nH]ccc56)cc4C3)cc2C(F)(F)F)CC1` [III-9] it is less than 500 nM.
For `CCN1CCN(Cc2ccc(NC(=O)N3CCc4cc(F)c(Oc5ncnn6cccc56)cc4C3C)cc2C(F)(F)F)CC1` (stereo not shown) [IV-35], the IC50 was less than 500 nM.
The compound `Cc1cc2c(Oc3ccc4c(c3)[C@H](C)N(C(=O)Nc3cnc(NC5CCN(C)CC5)c(C(F)(F)F)c3)CC4)ccnc2[nH]1` [VI-7] registered an IC50 of less than 500 nM.

The same test, now with this note: 1 mM ATP, Table 20.
`C[C@H]1CN(C(=O)Nc2ccc(CN3CCN(C)CC3)c(C(F)(F)F)c2)Cc2cc(Oc3ccnc4[nH]c(C#N)cc34)ccc21` [XV-34]: the half-maximal inhibitory concentration (IC50) was less than 500 nM.
For the compound `C[C@H]1c2cc(Oc3ccnc4[nH]c(CO)cc34)ccc2CCN1C(=O)Nc1cnc(OC2CCN(C)CC2)c(C(F)(F)F)c1` [XIII-3], the IC50 was less than 500 nM.
`CCC1CN(C(=O)Nc2ccc(CN3CCN(CC)CC3)c(C(F)(F)F)c2)Cc2cc(Oc3ccnc4[nH]c(C(C)O)cc34)cnc21` (stereo not shown) [XIV-40] gave an IC50 of less than 500 nM.
Same read-out and setting: under `C[C@@H]1CN(C(=O)Nc2ccc(CN3CCN(C)CC3)c(C(F)(F)F)c2)Cc2cc(Oc3ccnc4[nH]c(CO)cc34)cnc21` [XIV-75] stands less than 500 nM.
`C[C@@H]1Cc2ccc(Oc3ccnc4[nH]c(C(=O)N(C)C)cc34)cc2CN1C(=O)Nc1cnc(O[C@@H]2CCN(C)C[C@@H]2O)c(C(F)(F)F)c1` [XVI-6] gave a half-inhibitory concentration (IC50) of less than 500 nM.
Compound `CC[C@H]1CN(C(=O)Nc2ccc(CN3CCNCC3)c(C(F)(F)F)c2)Cc2cc(Oc3ccnc4[nH]c(CO)cc34)cnc21` [XIV-55] registered an IC50 of less than 500 nM.
Regarding `CN1CCN(Cc2ccc(NC(=O)N3CCc4ccc(Oc5c(F)cnc6[nH]c(-c7cnn(C)c7)cc56)cc4C3)cc2C(F)(F)F)CC1` [compound 19, 7-[[5-Fluoro-2-(1-methylpyrazol-4-yl)-1H-pyrrolo[2,3-b]pyridin-4-yl]oxy]-N-[4-[(4-methylpiperazin-1-yl)methyl]-3-(trifluoromethyl)phenyl]-3,4-dihydro-1H-isoquinoline-2-carboxamide], the half-inhibitory concentration (IC50) is less than 500 nM.
Same read-out and setting: under `O=C(Nc1ccc(CN2CCNCC2)c(C(F)(F)F)c1)N1CCc2ccc(Oc3ccnc4[nH]c(C5(O)CC5)cc34)cc2C1` [XVIII-9] stands less than 500 nM; under `CC[C@@H]1CN(C(=O)Nc2ccc(CN3CCN(CC)CC3)c(C(F)(F)F)c2)Cc2cc(Oc3ccnc4[nH]c(C5(O)CC5)cc34)cnc21` [XIV-76], less than 500 nM.
For the compound `CN1CCN(Cc2ccc(NC(=O)N3Cc4cc(Oc5ccnc6[nH]c(C7(O)CC7)cc56)ccc4C(C(F)(F)F)C3)cc2C(F)(F)F)CC1` (stereo not shown) [XVIII-12], the concentration for half-maximal inhibition (IC50) was less than 500 nM.
In turn, `CC[C@@H]1CN(C(=O)Nc2ccc(CN3CCN(C)CC3)c(C(F)F)c2)Cc2cc(Oc3ccnc4[nH]c(CO)cc34)ccc21` [XV-8] registered an IC50 of less than 500 nM.
`CN1CCN(Cc2ncc(NC(=O)N3CCc4ccc(Oc5c(F)cnc6[nH]c(-c7ccncc7)cc56)cc4C3)cc2C(F)(F)F)CC1` [XII-10] gave an IC50 of less than 500 nM.
Same read-out and setting: the figure for `Cc1cc2c(Oc3cnc4c(c3)CN(C(=O)Nc3ccc(CN5CCNC6(CC6)C5)c(C(F)(F)F)c3)C[C@H]4C)ccnc2[nH]1` [XIV-94] is less than 500 nM.
Same read-out and setting: the figure for `CC[C@H]1CN(C(=O)Nc2ccc(CN3CCN(C)CC3)c(C(F)(F)F)c2)Cc2cc(Oc3ncnc4[nH]c(C(=O)NC)cc34)cnc21` [XIV-121] is less than 500 nM; for `CCN1CCN(Cc2ccc(NC(=O)N3CCc4ccc(Oc5cc(NC(=O)c6cnn(C)c6)ncc5F)cc4[C@@H]3C)cc2C(F)(F)F)CC1` [XIII-17] it is less than 500 nM.
Same read-out and setting: the figure for `CC[C@@H]1CN(C(=O)Nc2cnc(OC3CCN(C)CC3)c(C(F)(F)F)c2)Cc2cc(Oc3ccnc4[nH]c(C#N)cc34)cnc21` [XIV-42] is less than 500 nM; for `CC[C@@H]1CN(C(=O)Nc2ccc(CN3CCNCC3)c(C(F)(F)F)c2)Cc2cc(Oc3ccnc4[nH]c(C5CC5)cc34)cnc21` [XIV-64] it is less than 500 nM.
Consider `CC[C@H]1CN(C(=O)Nc2ccc(CN3CCN(C)CC3)c(C(F)(F)F)c2)Cc2cc(Oc3ccnc4[nH]c(C(=O)NCCCO)cc34)cnc21` [XIV-108], for which the half-inhibitory concentration (IC50) was less than 500 nM.
Still for that read-out and setting: the figure for `CC[C@H]1CN(C(=O)Nc2ccc(CN3CCN(C)CC3)c(C(F)(F)F)c2)Cc2cc(Oc3ccnc4[nH]c(C(C)C)cc34)cnc21` [XIV-153] is less than 500 nM.
`CC[C@@H]1CN(C(=O)Nc2ccc(CN3CCN(CCO)CC3)c(C(F)F)c2)Cc2cc(Oc3ccnc4[nH]c(C5CC5)cc34)ccc21` [XV-24] showed an IC50 of less than 500 nM.
In turn, `CCN1CCN(Cc2ccc(NC(=O)N3CCc4ncc(Oc5ccnc6[nH]c(C)cc56)cc4C3C)cc2C(F)(F)F)CC1` (single isomer, unassigned) [XI-9] had a 50% inhibitory concentration (IC50) of less than 500 nM.
In turn, `C[C@H]1CN(C(=O)Nc2ccc(CN3CCN(C)CC3)c(C(F)(F)F)c2)Cc2cc(Oc3c(F)cnc4[nH]c(-c5cnn(C)c5)cc34)ccc21` [XII-12] showed a concentration for half-maximal inhibition (IC50) of less than 500 nM.
`CC[C@H]1CN(C(=O)Nc2ccc(CN3CCN(C)CC3)c(C(F)F)c2)Cc2cc(Oc3ccnc4[nH]c(C5(O)COC5)cc34)cnc21` [XIV-53] came in with a half-maximal inhibitory concentration (IC50) of less than 500 nM.
The same measure, in the same setting: under `CC[C@H]1CN(C(=O)Nc2cnc(CN3CCN(CC)CC3)c(C(F)(F)F)c2)Cc2cc(Oc3ccnc4[nH]ccc34)cnc21` [XIV-10] stands less than 500 nM; under `Cc1cc2c(Oc3cnc4c(c3)CN(C(=O)Nc3ccc(CN5CCN(C)CC5)c(OC(F)(F)F)c3)C[C@H]4C)ccnc2[nH]1` [XIV-89], less than 500 nM.
`CCC1CN(C(=O)Nc2ccc(CN3CCN(CC)CC3)c(C(F)(F)F)c2)Cc2cc(Oc3ccnc4[nH]c(C5=CCN(C(=O)C6CC6)CC5)cc34)cnc21` (stereo not shown) [XIV-155] yielded an IC50 of less than 500 nM.
Still for that read-out and setting: under `CCN1CCN(Cc2ccc(NC(=O)N3CCc4cnc(Nc5ccnc6[nH]ccc56)nc4C3)cc2C(F)(F)F)CC1` [XVIII-11] stands 500 to 5000 nM; under `C[C@H]1c2cc(Oc3ccnc4[nH]c(C5(O)COC5)cc34)ccc2CCN1C(=O)Nc1ccc(CN2CCN(C)CC2)c(C(F)F)c1` [XIII-10], less than 500 nM.
